The values that follow come from patent publication US20120022026A1, “METHOD OF TREATING CANCER” (ERASMUS UNIVERSITY MEDICAL CENTER ROTTERDAM, priority 2009, published 2012).

pEC50, pIC50, pKi: −log10 of the molar value. Where two headings read alike, the source gives them in different places. Residues, ends and D or L forms follow the SMILES beside them. *: point of attachment. Cbz = O=C(OCc1ccccc1)*

Assay [1] deals with PARP-2 (Homo sapiens, UniProt Q9UGN5). To be noted: cited from earlier work.
Sequence of PARP-2 (Q9UGN5 whole entry, species assumed): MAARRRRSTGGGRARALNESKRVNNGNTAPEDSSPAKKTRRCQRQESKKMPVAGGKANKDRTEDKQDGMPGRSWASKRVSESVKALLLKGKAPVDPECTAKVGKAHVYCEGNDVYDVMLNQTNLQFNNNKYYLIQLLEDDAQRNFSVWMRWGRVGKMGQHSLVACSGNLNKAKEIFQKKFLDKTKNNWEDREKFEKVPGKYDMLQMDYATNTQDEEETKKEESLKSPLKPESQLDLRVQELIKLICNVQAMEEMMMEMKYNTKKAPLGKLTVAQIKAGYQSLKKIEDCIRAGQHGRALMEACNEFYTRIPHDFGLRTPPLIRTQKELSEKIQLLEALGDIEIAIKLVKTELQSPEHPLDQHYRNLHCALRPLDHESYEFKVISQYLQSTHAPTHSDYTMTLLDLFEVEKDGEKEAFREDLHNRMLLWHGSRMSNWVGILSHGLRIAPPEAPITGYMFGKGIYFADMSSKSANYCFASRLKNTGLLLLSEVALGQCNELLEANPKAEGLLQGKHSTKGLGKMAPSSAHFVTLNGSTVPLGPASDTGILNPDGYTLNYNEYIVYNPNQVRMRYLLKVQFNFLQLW
In assay [2] the test system is PARP. To be noted: cited from earlier work.
In assay [3] the test system is BRCA2. The assay can be described thus: Immunoblotting of BRCA2 in BLM cells under mild hyperthermia. In kind it is cell-based, human. To be noted: hyperthermia plus 100 nM 17-DMAG vs heat without 17-DMAG or 17-DMAG at 37° C. (FIG. 4A). How it is done:
(§1) Embryonic stem (ES) cells were cultured on gelatin-coated dishes in a 1:1 mixture of Dulbecco's modified Eagle's medium (DMEM) and buffalo rat liver conditioned medium, supplemented with 10% FBS (Hyclone), 0.1 mM nonessential amino acids (Biowhittaker), […] β-mercaptoethanol (Sigma) and 500 U ml-1 leukemia inhibitory factor. Other cells were cultured in following media, supplemented with 10% (v/v) FCS and streptomycin/penicillin: 1:1 mixture of DMEM and Ham's F10 (HeLa), DMEM (human melanoma [BLM], osteosarcoma [U2OS], cervix carcinoma cells), L-15 (human squamous lung carcinoma [SW-1573]), Eagle's MEM (mouse osteosarcoma [MOS], rat rhabdomyosarcoma [R1]). Cells were maintained at 37° C. in an atmosphere containing 5% (HeLa, BLM), 10% (U2OS, cervix carcinoma cells), 2% (R1) or 0% (SW-1573) CO2. Patients with cervical cancer expressed written informed consent to provide fresh biopsies during an investigation under general anesthesia, and use the tumor specimens for this study. This study was approved by the medical ethical committee of the AMC (MEC #03/137). […]
(§2) Cells were lysed in SDS sample buffer (2% SDS, 10% glycerol, 60 mM Tris-HCl pH 6.8). […] Protein concentration was determined by the Lowry protein assay, extracts were supplemented with 0.5% […] and 0.02% bromophenol blue. […]
Background: In western blotting, separated proteins are transferred to a membrane and probed.

Assay [4] concerns HR-mediated gene targeting. Nature of the assay: Gene targeting efficiency assay in ES cells. In kind it is cell-based. To be noted: mouse ES cells, 41° C. plus 100 nM 17-DMAG vs heat without 17-DMAG or 17-DMAG at 37° C. (FIG. 1C). How it is done:
as §1, with “#03/137). The biopsies were minced using scalpel, then incubated in Liberase Blendzyme enzyme cocktail (Roche) in DMEM for 60 min at 37° C. and plated on glass coverslips in fresh culture medium.” for “#03/137).”

The subject of assay [5] is R1 cells. Nature of the assay: Clonogenic assay, R1 cells with mild hyperthermia. The class given is cell-based, rat. Particulars: R1, 41° C.; for clonogenic survival: combination of 100 μM NU1025 and 100 nM 17-DMAG (FIG. 4B). How it is done:
Embryonic stem (ES) cells were cultured on gelatin-coated dishes in a 1:1 mixture of Dulbecco's modified Eagle's medium (DMEM) and buffalo rat liver conditioned medium, supplemented with 10% FBS (Hyclone), 0.1 mM nonessential amino acids (Biowhittaker), […] β-mercaptoethanol (Sigma) and 500 U ml-1 leukemia inhibitory factor. Other cells were cultured in following media, supplemented with 10% (v/v) FCS and streptomycin/penicillin: 1:1 mixture of DMEM and Ham's F10 (HeLa), DMEM (human melanoma [BLM], osteosarcoma [U2OS], cervix carcinoma cells), L-15 (human squamous lung carcinoma [SW-1573]), Eagle's MEM (mouse osteosarcoma [MOS], rat rhabdomyosarcoma [R1]). Cells were maintained at 37° C. in an atmosphere containing 5% (HeLa, BLM), 10% (U2OS, cervix carcinoma cells), 2% (R1) or 0% (SW-1573) CO2. Patients with cervical cancer expressed written informed consent to provide fresh biopsies during an investigation under general anesthesia, and use the tumor specimens for this study. This study was approved by the medical ethical committee of the AMC (MEC #03/137). The biopsies were minced using scalpel, then incubated in Liberase Blendzyme enzyme cocktail (Roche) in DMEM for 60 min at 37° C. and plated on glass coverslips in fresh culture medium. All incubations at elevated temperature were performed in a heated waterbath or in a water-filled cuvette placed in an incubator set to required temperature, in an atmosphere containing appropriate CO2 concentration.
The following inhibitors were used at the indicated final concentrations: 17-DMAG, 100 nM (Sigma-Aldrich), NU1025, 100 μM (Sigma-Aldrich), MG-132, 10 μM (Calbiochem).
(§3) In experiments involving NU1025 or irradiation, cells were trypsinized, counted and plated at appropriate concentrations into 60- or 35 mm dishes. […] Cells were then incubated for 7-14 days, fixed, stained and colonies exceeding 50 cells were counted. […] In experiments involving a combination of NU1025 and 17-DMAG, cells were first treated as indicated and subsequently trypsinized, counted and plated at various concentrations. […]

The test system of assay [6] is BRCA2. Nature of the assay: Immunoblotting of BRCA2 in HeLa cells under mild hyperthermia. In kind it is cell-based. Particulars: exposed to 41° C. in presence of 10 μM MG132 (FIG. 2C). As to the method:
as §1, §2

For assay [7], the system named is MOS cells. Nature of the assay: Clonogenic assay, MOS cells. The class given is cell-based, mouse. As to the method: as §1, with “CO2.” for “CO2. Patients with cervical cancer expressed written informed consent to provide fresh biopsies during an investigation under general anesthesia, and use the tumor specimens for this study. This study was approved by the medical ethical committee of the AMC (MEC #03/137).”
as §3

Assay [8] has as its system SW-1573 cells. Nature of the assay: Clonogenic assay, SW-1573 cells. In kind it is cell-based, human. As to the method: as §1, with “CO2.” for “CO2. Patients with cervical cancer expressed written informed consent to provide fresh biopsies during an investigation under general anesthesia, and use the tumor specimens for this study. This study was approved by the medical ethical committee of the AMC (MEC #03/137).”
as §3

In assay [9] the test system is U2OS cells. Nature of the assay: Clonogenic assay, U2OS cells with mild hyperthermia. To be noted: 41° C., 100 μM NU1025 (FIG. 3A). The class given is cell-based, human. As to the method: as §1, with “CO2.” for “CO2. Patients with cervical cancer expressed written informed consent to provide fresh biopsies during an investigation under general anesthesia, and use the tumor specimens for this study. This study was approved by the medical ethical committee of the AMC (MEC #03/137).”
as §3

The target of assay [10] is recombinant PARP-1 (Homo sapiens, UniProt P09874). To be noted: recombinant PARP-1, cell-free assay; read-out: competitive inhibition Ki; cited from earlier work.
Sequence of recombinant PARP-1 (P09874 whole entry, species assumed, canonical isoform): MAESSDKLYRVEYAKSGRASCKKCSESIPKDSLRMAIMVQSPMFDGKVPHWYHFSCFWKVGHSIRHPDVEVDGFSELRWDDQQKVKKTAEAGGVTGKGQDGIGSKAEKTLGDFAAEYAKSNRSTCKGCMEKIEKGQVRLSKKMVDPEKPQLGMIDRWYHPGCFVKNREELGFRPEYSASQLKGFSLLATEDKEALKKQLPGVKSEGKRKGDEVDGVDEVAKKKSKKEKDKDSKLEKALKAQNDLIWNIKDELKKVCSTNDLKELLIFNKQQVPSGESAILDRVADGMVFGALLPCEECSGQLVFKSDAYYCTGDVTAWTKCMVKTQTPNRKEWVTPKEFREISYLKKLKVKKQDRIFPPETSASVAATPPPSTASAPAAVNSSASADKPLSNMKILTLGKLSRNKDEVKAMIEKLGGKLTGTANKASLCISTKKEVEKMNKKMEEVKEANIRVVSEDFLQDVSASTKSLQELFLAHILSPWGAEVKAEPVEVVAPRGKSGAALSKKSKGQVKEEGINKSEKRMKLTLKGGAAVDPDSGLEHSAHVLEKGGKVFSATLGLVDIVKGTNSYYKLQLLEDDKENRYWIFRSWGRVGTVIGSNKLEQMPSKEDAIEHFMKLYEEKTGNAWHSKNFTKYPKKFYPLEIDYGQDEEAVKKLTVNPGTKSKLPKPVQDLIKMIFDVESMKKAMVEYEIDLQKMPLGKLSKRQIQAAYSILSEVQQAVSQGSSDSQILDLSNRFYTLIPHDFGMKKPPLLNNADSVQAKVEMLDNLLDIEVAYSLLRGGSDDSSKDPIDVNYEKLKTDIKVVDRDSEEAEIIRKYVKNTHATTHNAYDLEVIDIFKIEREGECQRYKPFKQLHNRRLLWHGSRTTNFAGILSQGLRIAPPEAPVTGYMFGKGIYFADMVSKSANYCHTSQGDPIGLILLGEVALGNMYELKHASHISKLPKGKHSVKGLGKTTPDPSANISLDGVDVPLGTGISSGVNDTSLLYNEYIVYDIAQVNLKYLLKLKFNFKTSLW
[11] abbreviates: PARP inhibitor potency as listed, isoform not stated.

For orientation: pIC50 means −log10 of the IC50, conventionally taken in molar units. Broadly, the pEC50 is −log10 of the EC50, conventionally taken in molar units. Usually pKi stands for −log10 of the Ki, conventionally taken in molar units.

With `NC(=O)c1cccc2ncc(-c3ccc(Cl)cc3)nc12` [3-(4-chlorophenyl)quinoxaline-5-carboxamide], the pIC50 in [1] was 8.15.
As to `NC(=O)c1cccc(N)c1` [3-ABA, 3-aminobenzamide], in [2] (PARP inhibitor potency as listed), the pEC50 was […].
For the compound `Nc1ccc2c3c(cccc13)C(=O)NC2=O` [4-ANI, 4-amino-1,8-naphthalimide], the pIC50 in assay [2] was 6.74.
For `CO[C@H]1/C=C\C=C(/C)C(=O)NC2=CC(=O)C(NCCN(C)C)=C(C[C@@H](C)C[C@H](OC)[C@H](O)[C@@H](C)/C=C(\C)[C@@H]1OC(N)=O)C2=O` [17-DMAG, 17-dimethylaminoethylamino-17-demethoxy-geldanamycin], the “levels of BRCA2 protein” value in assay [3] was “further reduced”. For the same compound, the “efficiency of HR-mediated gene targeting” value in assay [4] is given as “further reduced”. Further, the clonogenic survival entry in assay [5] is listed as “dramatically reduced”.
Regarding `O=C1NCCc2c(OCCCCN3CCCCC3)cccc21` [DPQ, 3,4-dihydro-5[4-(1-piperindinyl)butoxy]-1(2H)-isoquinoline], the pIC50 in assay [2] (setting [11]) was 7.40.
Regarding `Cc1nc2c(c(=O)[nH]1)CSCC2` [DR2313, 2-methyl-3,5,7,8-tetrahydrothiopyrano[4,3-d]pyrimidine-4-one], the pIC50 in assay [1] was 6.62.
`Nc1ncnc2c1ncn2C1OC(C(=O)N2CCN(CC(=O)Nc3cccc4c3CNC4=O)CC2)C(O)C1O` [EB-47, 1-piperazineacetamide,4-[1-(6-amino-9H-purin-9-yl)-1-deoxy-6-D-ribofuranuron]-N-(2,3-dihydro-1H-isoindol-4-yl)-1-one]: the pIC50 in assay [2] (setting [11]) was 7.35.
Take `Oc1cccc2c(O)nccc12` [IQD, 1,5-dihydroxyisoquinoline]: the pIC50 in assay [2] (setting [11]) was 6.41.
On to `CC(C)C[C@@H](C=O)NC(=O)[C@H](CC(C)C)NC(=O)[C@H](CC(C)C)NC(=O)OCc1ccccc1` [MG132] (Cbz-Leu-Leu-Leu-aldehyde), for which the “BRCA2 levels on hyperthermia” value in assay [6] is on record as “no decrease of BRCA2 levels”.
`Cc1nc2c(O)cccc2c(=O)[nH]1` [NU1025, 8-hydroxy-2-methylquinazoline-4-one]: the “sensitivity to inhibitor alone” value is listed as “insensitive” in assay [7] (NU1025 alone, data not shown) and “insensitive” in assay [8] (SW-1573, NU1025 alone, data not shown). Besides, the “survival of hyperthermia-treated cells” value in [7] (hyperthermia plus NU1025, data not shown) is on record as “did not reduce survival”; in assay [8] (SW-1573, hyperthermia plus NU1025, data not shown), “did not reduce survival”. Moreover, the pIC50 in assay [2] is 6.40. For the same compound, the “clonogenic survival compared to hyperthermia alone” value in assay [5] (100 μM NU1025 (FIG. 3B)) and in assay [9] was “decrease in clonogenic survival” in each case. Also, the clonogenic survival entry in assay [5] is listed as “dramatically reduced”.
For the compound `O=C1N=C2SCC=C2c2ccccc21` [TIQ-A, thieno[2,3-c]isoquinolin-5-one], the pIC50 in assay [2] (setting [11]) was 6.35.
For `CN(C)c1ccc(O)c2c1C[C@H]1C[C@H]3[C@H](N(C)C)C(O)=C(C(N)=O)C(=O)[C@@]3(O)C(O)=C1C2=O` [minocycline], the pKi in assay [10] is 7.86.
